This is an account of results in US20160168540A1, “COMPOSITION FOR MAINTAINING PLATELET FUNCTION” (KYOTO UNIVERSITY, priority 2013, published 2016).

Structures are written as SMILES.

For the experiment, the target named is T1, TACE (ADAM17) (Homo sapiens, UniProt P78536).
T1 construct: made in house; host or cells: mammalian cells or insect cells
As to the kind of experiment: TACE (ADAM17) inhibition test. The format is biochemical. To be noted: fluorescent synthetic substrate, 37° C. for 1.5 hours; read-out: TACE IC50. The text has this: The nucleotide sequence of TACE has been reported by Moss et al. (Moss, M. L. et al., Nature 1997, vol. 385, pp. 733-736). Based on this information, the cDNA of TACE was obtained according to the prescribed method from THP-1 cells or the like, and then incorporated the cDNA into an expression vector. Next, this vector was transformed into mammalian cells or insect cells, and TACE protein was expressed. The TACE protein was isolated, and used as an enzyme. Further, a fluorescent synthetic substrate Nma(N-methylanthranilic acid)-Leu-Ala-Gln-Ala-Val-Arg-Ser-Ser-Lys(Dnp(dinitrophenyl))-D-Arg-NH2 including the TACE-cleaved sequence of a membrane-bound TNF was used as a substrate. The enzyme reaction was carried out by adding 1.8 μL of a solution of the test substance to 90 μL of a fluorescent synthetic substrate prepared with an assay buffer B (50 mM tris-hydrochloric acid buffer (pH 7.5) including 200 mM sodium chloride, 5 mM calcium chloride, 10 μM zinc sulfate, and 0.05% PLURONIC F-68), then mixing 90 μL of a TACE enzyme solution prepared with an assay buffer A (50 mM tris-hydrochloric acid buffer (pH 7.5) including 200 mM sodium chloride, 5 mM calcium chloride, 10 μM zinc sulfate, and 2 mg/mL bovine serum albumin) and reacting at 37° C. for 1.5 hours. Enzyme activity was then determined by measuring with a fluorescence intensity meter (Labsystems, Fluoroskan Ascent) at an excitation wavelength of 355 nm and a measurement wavelength of 460 nm. The 50% inhibitory concentration (IC50) of the test substances was calculated by comparing enzyme activity in the presence and the absence of the test substance to determine the inhibition rate. Further, test substances having an IC50 strength of less than 100 nM were evaluated as “A”, and test substances having an IC50 strength of 100 nM or more were evaluated as “B”.

T1 sequence (P78536 215-824): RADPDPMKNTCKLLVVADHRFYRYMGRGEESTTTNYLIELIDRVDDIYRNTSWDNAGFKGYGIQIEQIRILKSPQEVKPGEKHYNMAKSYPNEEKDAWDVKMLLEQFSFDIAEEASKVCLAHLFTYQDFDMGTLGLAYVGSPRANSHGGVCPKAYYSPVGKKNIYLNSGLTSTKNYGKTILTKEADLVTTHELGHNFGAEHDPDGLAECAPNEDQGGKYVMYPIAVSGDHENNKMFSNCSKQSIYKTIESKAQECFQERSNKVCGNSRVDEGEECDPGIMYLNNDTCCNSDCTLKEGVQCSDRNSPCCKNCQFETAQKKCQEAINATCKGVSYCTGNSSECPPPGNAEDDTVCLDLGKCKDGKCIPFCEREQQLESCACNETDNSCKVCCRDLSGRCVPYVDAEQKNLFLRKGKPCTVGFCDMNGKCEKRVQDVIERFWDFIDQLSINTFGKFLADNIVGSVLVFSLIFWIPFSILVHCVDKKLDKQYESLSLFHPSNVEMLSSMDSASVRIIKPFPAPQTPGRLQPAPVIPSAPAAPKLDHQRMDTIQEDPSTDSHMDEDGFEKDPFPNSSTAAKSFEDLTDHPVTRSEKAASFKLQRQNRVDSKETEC

In the case of `Cc1cccn(CC2(c3ccc(Br)cc3)NC(=O)NC2=O)c1=O` (racemic) [Compound I-11, 5-(4-bromophenyl)-5-[(3-methyl-2-oxopyridin-1(2H)-yl)methyl]imidazolidine-2,4-dione], the IC50 was less than 100 nM.
For `Cc1cccn(CC2(c3ccc4c(c3)OCCO4)NC(=O)NC2=O)c1=O` (racemic) [Compound I-59] the value was less than 100 nM; for `Cc1ccc(Oc2ccc(C3(Cn4cccc(C)c4=O)NC(=O)NC3=O)cc2)cc1` (racemic) [Compound I-34, 5-[(3-methyl-2-oxopyridin-1(2H)-yl)methyl]-5-[4-(p-tolyloxy)phenyl]imidazolidine-2,4-dione], less than 100 nM.
Turning to `Cc1cccn(CC2(c3ccsc3)NC(=O)NC2=O)c1=O` (racemic) [Compound I-5, 5-[(3-methyl-2-oxopyridin-1(2H)-yl)methyl]-5-(thiophen-3-yl)imidazolidine-2,4-dione], the half-maximal inhibitory concentration (IC50) was less than 100 nM.
For `Cc1cccn(CC2(c3ccc(F)c(Cl)c3)NC(=O)NC2=O)c1=O` (racemic) [Compound I-126] the value was less than 100 nM; for `Cc1cccn(CC2(c3cc(F)c(F)cc3F)NC(=O)NC2=O)c1=O` (racemic) [Compound I-29, 5-[(3-methyl-2-oxopyridin-1(2H)-yl)methyl]-5-(2,4,5-trifluorophenyl)imidazolidine-2,4-dione], less than 100 nM; for `Cc1cccn(CC2(c3ccc(CC(C)C)cc3)NC(=O)NC2=O)c1=O` (racemic) [Compound I-121], less than 100 nM.
For `Cc1cccn(CC2(c3ccc(Oc4ccc(F)cc4)c(F)c3)NC(=O)NC2=O)c1=O` (racemic) [Compound I-111] the value was less than 100 nM; for `Cc1cccn(CC2(c3ccc(OC(C)C)cc3)NC(=O)NC2=O)c1=O` (racemic) [Compound I-120], less than 100 nM; for `C=Cc1ccc(C2(Cn3cccc(C)c3=O)NC(=O)NC2=O)cc1` (racemic) [Compound I-43, 5-[(3-methyl-2-oxopyridin-1(2H)-yl)methyl]-5-(4-vinylphenyl)imidazolidine-2,4-dione], less than 100 nM.
Under `Cc1cccn(CC2(c3ccc(Sc4ccccc4)c(F)c3)NC(=O)NC2=O)c1=O` (racemic) [Compound I-103] stands less than 100 nM; under `CCCc1ccc(C2(Cn3cccc(C)c3=O)NC(=O)NC2=O)cc1` (racemic) [Compound I-45, 5-[(3-methyl-2-oxopyridin-1(2H)-yl)methyl]-5-(4-propylphenyl)imidazolidine-2,4-dione], less than 100 nM; under `C=C(C)c1cccn(CC2(c3ccc(OC)cc3)NC(=O)NC2=O)c1=O` (racemic) [Compound I-144], no less than 100 nM.
With `COc1cccn(CC2(c3ccccc3)NC(=O)NC2=O)c1=O` (racemic) [Compound I-143], the concentration for half-maximal inhibition (IC50) was no less than 100 nM.
For `Cc1cccn(CC2(c3ccc(Oc4cc(F)cc(F)c4)cc3)NC(=O)NC2=O)c1=O` (racemic) [Compound I-99] the value was less than 100 nM.
For `Cc1cc(C2(Cn3cccc(C)c3=O)NC(=O)NC2=O)cc(C)c1OC1CCCC1` (racemic) [Compound I-129] the value was less than 100 nM; for `O=C1NC(=O)C(Cn2ccccc2=O)(c2ccc(Cc3ccccc3)cc2)N1` (racemic) [Compound I-156], no less than 100 nM; for `Cc1cccn(CC2(c3ccc(Oc4cccc(F)c4)cc3)NC(=O)NC2=O)c1=O` (racemic) [Compound I-84], less than 100 nM.
For `Cc1cc(C2(Cn3cccc(C)c3=O)NC(=O)NC2=O)ccc1OC1CCCCC1` (racemic) [Compound I-131] the value was less than 100 nM; for `Cc1cccn(CC2(c3ccc(Cc4ccc(F)cc4)cc3)NC(=O)NC2=O)c1=O` (racemic) [Compound I-41, 5-[4-(4-fluorobenzyl)phenyl]-5-[(3-methyl-2-oxopyridin-1(2H)-yl)methyl]imidazolidine-2,4-dione], less than 100 nM; for `O=C1NC(=O)C(Cn2cccc(Cl)c2=O)(c2ccc(Cc3ccccc3)cc2)N1` (racemic) [Compound I-150], less than 100 nM.
`Cc1cccn(CC2(c3ccc(Cc4ccccc4)cc3)NC(=O)NC2=O)c1=O` (racemic) [Compound I-40, 5-(4-benzylphenyl)-5-[(3-methyl-2-oxopyridin-1(2H)-yl)methyl]imidazolidine-2,4-dione]: the IC50 is less than 100 nM.
As for `COc1ccc(C)cc1C1(Cn2cccc(C)c2=O)NC(=O)NC1=O` (racemic) [Compound I-76], the IC50 was no less than 100 nM.
Under `COc1ccc(OC(F)(F)F)cc1C1(Cn2cccc(C)c2=O)NC(=O)NC1=O` (racemic) [Compound I-24, 5-[2-methoxy-5-(trifluoromethoxy)phenyl]-5-[(3-methyl-2-oxopyridin-1(2H)-yl)methyl]imidazolidine-2,4-dione] stands no less than 100 nM.
Under `Cc1cccn(CC2(c3ccc(Oc4ccccc4)c(F)c3)NC(=O)NC2=O)c1=O` (racemic) [Compound I-87] stands less than 100 nM.
For `Cc1cccn(CC2(c3ccc(Oc4ccc(F)cc4F)cc3)NC(=O)NC2=O)c1=O` (racemic) [Compound I-97] the value was less than 100 nM.
`Cc1cccn(CC2(c3ccc(OCc4ccccc4)cc3)NC(=O)NC2=O)c1=O` (racemic) [Compound I-64]: the concentration for half-maximal inhibition (IC50) was less than 100 nM.
Under `COc1ccncc1-c1ccc(C2(Cn3cccc(C)c3=O)NC(=O)NC2=O)cc1` (racemic) [Compound I-91] stands less than 100 nM.
Regarding `O=C1NC(=O)C(Cn2cccc(Cl)c2=O)(c2ccc(F)c(F)c2)N1` (racemic) [Compound I-146], the IC50 was less than 100 nM.
For `Cc1cccn(CC2(c3cc(F)ccc3F)NC(=O)NC2=O)c1=O` (racemic) [Compound I-154] the value was less than 100 nM; for `COc1ccc(C2(Cn3cccc(Cl)c3=O)NC(=O)NC2=O)cc1` (racemic) [Compound I-137], less than 100 nM.
For `Cc1cccn(CC2(c3ccc(C(C)(C)C)cc3)NC(=O)NC2=O)c1=O` (racemic) [Compound I-17, 5-[4-(tert-butyl)phenyl]-5-[(3-methyl-2-oxopyridin-1(2H)-yl)methyl]imidazolidine-2,4-dione], the IC50 was less than 100 nM.
For `COc1ccccc1-c1ccc(C2(Cn3cccc(C)c3=O)NC(=O)NC2=O)cc1` (racemic) [Compound I-74] the value was less than 100 nM; for `COc1ccc(Cl)cc1C1(Cn2cccc(C)c2=O)NC(=O)NC1=O` (racemic) [Compound I-27, 5-(5-chloro-2-methoxyphenyl)-5-[(3-methyl-2-oxopyridin-1(2H)-yl)methyl]imidazolidine-2,4-dione], less than 100 nM; for `Cc1cccn(CC2(c3ccc(F)cc3)NC(=O)NC2=O)c1=O` (racemic) [Compound I-15, 5-(4-fluorophenyl)-5-[(3-methyl-2-oxopyridin-1(2H)-yl)methyl]imidazolidine-2,4-dione], less than 100 nM.
Under `Cc1cccn(CC2(c3cc(F)c(F)c(F)c3)NC(=O)NC2=O)c1=O` (racemic) [Compound I-44, 5-[(3-methyl-2-oxopyridin-1(2H)-yl)methyl]-5-(3,4,5-trifluorophenyl)imidazolidine-2,4-dione] stands less than 100 nM; under `O=C1NC(=O)C(Cn2cccc(F)c2=O)(c2ccc(Cc3ccccc3)cc2)N1` (racemic) [Compound I-152], no less than 100 nM; under `Cc1cccn(CC2(c3ccncc3)NC(=O)NC2=O)c1=O` (racemic) [Compound I-55], less than 100 nM.

For orientation: IC50 means the midpoint of a concentration-inhibition curve.
